# US8119616B2, “Formulation of quinazoline based EGFR inhibitors containing a zinc binding moiety” (Curis, Inc., priority 2007, dated 2012)
# Where two headings read alike, the source gives them in different places.
# Legend:
# [1] = system: Pancreas_BxPC3; test: Cell proliferation assay (ATPlite); format: cell-based; conditions: 72 hours, 0.5% fetal bovine serum
# Experimental: (§1) A representative number of compounds were assayed against several different cell lines using the cell proliferation assay:
# (§2) Cell Proliferation Assay:
# (§3) Cancer cell lines were plated at 5,000 to 10,000 per well in 96-well flatted bottomed plates with various concentration of compounds. The cells were incubated with compounds for 72 hours in the presence of 0.5% of fetal bovine serum. Growth inhibition was accessed by adenosine triphosphate (ATP) content assay using Perkin Elmer ATPlite kit. ATPlite is an ATP monitoring system based on firefly luciferase. Briefly, 25 μl of mammalian cell lysis solution was added to 50 μl of phenol red-free culture medium per well to lyse the cells and stabilize the ATP. 25 μl of substrate solution was then added to the well and subsequently the luminescence was measured.
# [2] = system: Epidermoid_A431; test: Cell proliferation assay (ATPlite); format: cell-based; conditions: 72 hours, 0.5% fetal bovine serum
# Experimental: as §1, §2, §3
# [3] = system: Pancreas_HPAC; test: Cell proliferation assay (ATPlite); format: cell-based; conditions: 72 hours, 0.5% fetal bovine serum
# Experimental: as §1, §2, §3
# [4] = system: Colon_HCT116; test: Cell proliferation assay (ATPlite); format: cell-based; conditions: 72 hours, 0.5% fetal bovine serum
# Experimental: as §1, §2, §3
# [5] = system: Prostate_PC3; test: Cell proliferation assay (ATPlite); format: cell-based; conditions: 72 hours, 0.5% fetal bovine serum
# Experimental: as §1, §2, §3
# [6] = system: Prostate_22RV1; test: Cell proliferation assay (ATPlite); format: cell-based; conditions: 72 hours, 0.5% fetal bovine serum
# Experimental: as §1, §2, §3
# [7] = system: Lung_H292; test: Cell proliferation assay (ATPlite); format: cell-based; conditions: 72 hours, 0.5% fetal bovine serum
# Experimental: as §1, §2, §3
# [8] = system: Breast_MDAMB468; test: Cell proliferation assay (ATPlite); format: cell-based; conditions: 72 hours, 0.5% fetal bovine serum
# Experimental: as §1, §2, §3
# [9] = system: Lung_H460; test: Cell proliferation assay (ATPlite); format: cell-based; conditions: 72 hours, 0.5% fetal bovine serum
# Experimental: as §1, §2, §3
# [10] = system: Lung_H358; test: Cell proliferation assay (ATPlite); format: cell-based; conditions: 72 hours, 0.5% fetal bovine serum
# Experimental: as §1, §2, §3
# [11] = system: Pancreas_PANC1; test: Cell proliferation assay (ATPlite); format: cell-based; conditions: 72 hours, 0.5% fetal bovine serum
# Experimental: as §1, §2, §3
# [12] = system: Lung_H2122; test: Cell proliferation assay (ATPlite); format: cell-based; conditions: 72 hours, 0.5% fetal bovine serum
# Experimental: as §1, §2, §3
# [13] = system: Breast_SkBr3; test: Cell proliferation assay (ATPlite); format: cell-based; conditions: 72 hours, 0.5% fetal bovine serum
# Experimental: as §1, §2, §3
# [14] = system: Breast_MCF7; test: Cell proliferation assay (ATPlite); format: cell-based; conditions: 72 hours, 0.5% fetal bovine serum
# Experimental: as §1, §2, §3
# [15] = system: Pancreas_CFPAC; test: Cell proliferation assay (ATPlite); format: cell-based; conditions: 72 hours, 0.5% fetal bovine serum
# Experimental: as §1, §2, §3
# [16] = system: Pancreas_MiaPaCa2; test: Cell proliferation assay (ATPlite); format: cell-based; conditions: 72 hours, 0.5% fetal bovine serum
# Experimental: as §1, §2, §3
# [17] = system: Pancreas_Capan1; test: Cell proliferation assay (ATPlite); format: cell-based; conditions: 72 hours, 0.5% fetal bovine serum
# Experimental: as §1, §2, §3
# [18] = system: A549 NSCLC; test: A549 NSCLC Xenograft model; format: in vivo, mice; conditions: compared with vehicle or control
# Experimental: A representative protocol for the in vivo experiment is as followed:
# 1-10×10^6 human cancer cells were implanted subcutaneously to the athymic (nu/nu) mice. When the tumors reached about 100 mm^3 in volume, the mice were treated with the compound by tail vein infusion. Routinely 5 groups (8-12 mice per group) are needed for a typical efficacy study, including one negative control, one positive control, and three testing groups for 3 dose levels of the same compound. Usually a 7-7-5 (on-off-on) regimen was used for one typical study. The tumor size was measured with an electronic caliper and body weight measured with a scale twice weekly. The tumors were removed from euthanized mice at the end of the study. One half of each tumor was frozen in dry ice and stored at −80° C. for PK or Western blot analysis. The other half was fixed with formalin. The fixed tissues were processed, embedded in paraffin and sectioned for immunohistochemistry staining. Protocol for Radioisotope assay for HER2
# [19] = male, CD-1, mouse, in vivo, ip, 7 days
# Experimental: 7-day-multiple dosing MTD in mice • a. CD-1 mice, male, 24-26 gram • b. Dosing at 0, 50, 100, 200 mg/kg/d ip • c. 6 mice per group • d. Blood and organs will be collected 2 hr after last dosing on Day 7 for hematology
# (§4) Stock solution is diluted with 30% CAPTISOL before use.
# [20] = system: HCT-116 (colon) and SKBr3 (breast) cancer cells; test: Induction of apoptosis (Caspase 3&7 activity); format: cell-based; conditions: HCT-116 and SKBr3, 24 hours
# [21] = system: HDAC; test: Ac-H4 and Ac-H3 accumulation in MDA-MB-468 breast cancer cell line; format: cell-based; conditions: FIG. 2
# [22] = system: various cancer cell lines; test: Anti-proliferative activity in various cancer cell lines (Table D, FIG. 3); format: cell-based; conditions: five major types of cancer (lung, breast, prostate, colon, and pancreas)
# Experimental: as §2, §3
# Table D illustrates the potency of compounds of the invention.
# [23] = both, Sprague Dawley, rat, in vivo, iv, 8 days
# Experimental: Single dosing MTD in rats • a. Sprague Dawley, male and female, 240-260 gram • b. Dosing at 0, 25, 50, 100, 200 mg/kg, iv infusion 5 min • c. 6 rats per group (3 male and 3 female)
# as §4
# [24] = both, Sprague Dawley, rat, in vivo, iv, 7 days
# Experimental: 7-day multiple dosing MTD in rats • a. Sprague Dawley, male and female, 220-250 gram • b. Dose, 25, 50, 100, 200 mg/kg/d) iv infusion 5 min • c. 6 per group (3 male and 3 female) • d. Blood and organs will be collected 2 hr after last dosing on Day 7 for hematology Compound Preparation
# as §4
# [25] = target: T1, human EGFR (Homo sapiens, UniProt P00533); test: HTScan EGF Receptor Kinase assay; format: biochemical; conditions: FIG. 1
# T1 construct: human EGFR (His672-Ala1210); purchased Cell Signaling Technologies; host or cells: baculovirus expression system
# Experimental: The ability of compounds to inhibit receptor kinase (EGFR) activity was assayed using HTScan™ EGF Receptor Kinase Assay Kits (Cell Signaling Technologies, Danvers, Mass.). […] The protein was purified by one-step affinity chromatography using glutathione-agarose.
# Immediately transfer enzyme from −80° C. to ice. Allowed enzyme to thaw on ice. […] Returned immediately to ice. […] Incubated reaction plate at room temperature for 30 minutes. […] Added 100 μl/well primary antibody. Incubated at room temperature for 60 minutes. […] Added 100 μl/well diluted antibody. Incubated at room temperature for 30 minutes. […] Incubated at room temperature for 5 minutes.
# [26] = male, CD-1, mouse, in vivo, iv, 9 day
# Experimental: Single dosing MTD in mice • a. CD-1 mice, male, 24-26 gram • b. Dosing at 0, 50, 100, 200, 400 mg/kg, iv infusion 2 min • c. 8 mice per group
# as §4
# T1 sequence (P00533 672-1210): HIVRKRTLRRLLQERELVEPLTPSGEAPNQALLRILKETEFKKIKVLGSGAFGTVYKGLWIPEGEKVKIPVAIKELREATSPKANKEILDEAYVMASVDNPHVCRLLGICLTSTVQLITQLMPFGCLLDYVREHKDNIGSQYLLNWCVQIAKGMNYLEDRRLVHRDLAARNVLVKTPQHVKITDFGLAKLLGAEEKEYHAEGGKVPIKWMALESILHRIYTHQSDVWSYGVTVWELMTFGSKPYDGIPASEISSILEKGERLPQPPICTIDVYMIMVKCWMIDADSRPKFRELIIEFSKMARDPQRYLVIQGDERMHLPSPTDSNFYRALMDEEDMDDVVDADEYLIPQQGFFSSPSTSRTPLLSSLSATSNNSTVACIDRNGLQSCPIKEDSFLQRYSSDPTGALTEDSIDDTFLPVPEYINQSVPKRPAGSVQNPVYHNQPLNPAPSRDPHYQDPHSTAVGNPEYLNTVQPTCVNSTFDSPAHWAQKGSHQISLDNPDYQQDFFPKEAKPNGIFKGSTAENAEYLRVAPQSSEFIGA
structure (smiles),measurement,setting,value
"C#Cc1cccc(Nc2ncnc3cc(OC)c(OCCCCCCC(=O)NO)cc23)c1 [Compound 12, 7-(4-(3-ethynylphenylamino)-7-methoxyquinazolin-6-yloxy)-N-hydroxyheptanamide]",IC50,[1],< 100 nM
same,IC50,[2],100 to 1000 nM
same,IC50,[3],1000 to 10000 nM
same,IC50,[4],100 to 1000 nM
same,IC50,[5],100 to 1000 nM
same,IC50,[6],100 to 1000 nM
same,IC50,[7],< 100 nM
same,IC50,[8],< 100 nM
same,IC50,[9],100 to 1000 nM
same,IC50,[10],100 to 1000 nM
same,IC50,[11],100 to 1000 nM
same,IC50,[12],100 to 1000 nM
same,IC50,[13],100 to 1000 nM
same,IC50,[14],< 100 nM
same,IC50,[15],100 to 1000 nM
same,IC50,[16],100 to 1000 nM
same,IC50,[17],100 to 1000 nM
same,effect on tumor size / tumor growth,[18],attenuated tumor growth
same,dose that did not result in a significant change in body weight,[19],up to 100 mg/kg
same,cell apoptosis as measured by increased Caspase 3&7 activity,[20],4-11 times
same,inhibition of histone acetylation compared with SAHA,[21],improvement in inhibition
same,response of cell lines compared with a combination of erlotinib and SAHA,[22],responded better to compound 12 than a combination of erlotinib and SAHA
same,dose that did not result in a significant change in body weight,[23],up to 200 mg/kg
same,dose that did not result in a significant change in body weight or food consumption,[24],up to 100 mg/kg
same,activity in EFGR enzyme assay compared with erlotinib and SAHA,[25],more active than erlotinib and SAHA
same,dose that did not result in a significant change in body weight,[26],up to 200 mg/kg
